Data: patent US20030170704A1, “Substance capable of controlling the inclusion of exon 10 of the tau gene, and its therapeutic use against tauopathies” (Max-Planck-Gesellschaft Zur Foerd Der Wissen. E.V., priority 1999, published 2003)

Experiments:
[1] = tested on: clk2 phosphorylation / exon 10 inclusion of the tau gene; experiment: Changing clk2 phosphorylation levels by kinase/phosphatase inhibitors; type: cell-based
[2] = tested on: tau exon 10 inclusion (SV10 minigene); experiment: RT-PCR of tau exon 10 minigene SV10 1:1 co-transfected with splicing regulator cDNA plasmids in COS cells; type: cell-based, human; conditions: 1:1 co-transfection, FIG. 4
Procedure: Plasmid DNA was purified by cesium chloride banding (Sambrook et al., 1989). The plasmids obtained in Examples 1 and 2 were introduced into cells by the lipofection method (LT1, Panvera).
Plates (100 mm) that had reached ˜30% confluence were transfected with 10 μg of construct DNA or 5 μg of each plasmid for co-transfections. The medium was changed 16 h after transfection, without glycerol shock.
Total RNA was isolated 48 h post-transfection by the TRIzol method (Life Technologies). […]
The RT-PCR experiments were done twice with the polyA^+ RNAs and with total RNAs from three independent transfections, to ensure reproducibility. […] In FIGS. 1-4, the percent of the 10^+ isoform was calculated by scanning the bands from three independent transfections and measuring the areas under the curves (by the IPLab Gel program from Scanalytics).
RT-PCR was performed in a manner as described in Example 4 (using primer pair: INS1/INS3), except that-mammalian cells were analyzed which had been 1:1 co-transfected with tau exon 10 containing minigene constructs (denoted SV 10) and with plasmids containing cDNA of various plicing regulators. […]

Compound | controlled change of exon 10 inclusion of the tau gene via clk2 phosphorylation levels [1] | effect on tau exon 10 inclusion (10+/10- isoform ratio by RT-PCR) [2]
OC[C@H]1O[C@@H](n2cnc3cc(Cl)c(Cl)cc32)[C@H](O)[C@@H]1O [5,6-dichloro-1-b-D-ribofuranosylbenzimidazole] | changing the clk2 phosphorylation levels | 
C=C1[C@@H](O)[C@@H]2O[C@]3(CC[C@H](/C=C/[C@@H](C)[C@@H]4CC(C)=C[C@@]5(O[C@H](C[C@@](C)(O)C(=O)O)CC[C@H]5O)O4)O3)CC[C@H]2O[C@@H]1[C@@H](O)C[C@H](C)[C@H]1O[C@@]2(CCCCO2)CC[C@H]1C [okadaic acid] | changing the clk2 phosphorylation levels | 
ASF/SF2: serine/arginine-rich (SR) protein splicing regulator, expressed from cDNA under the CMV promoter |  | inhibited
